Assay: xn = mol fraction of the nth substance listed
Settings: 101 kPa, Liquid; for speed of sound: Sing-around technique in a fixed-path interferometer; for viscosity: Capillary tube (Ostwald / Ubbelohde) method

NCCN [ethane-1,2-diamine] + CCCCO
Settings	mass density [kg/m3]	speed of sound [m/s]	viscosity [mPa·s]
293.15 K, x1 = 0.0528	815.585	1279.7	–
293.15 K, x1 = 0.1135	822.116	1302.1	–
293.15 K, x1 = 0.1488	825.769	1315.9	–
293.15 K, x1 = 0.214	832.273	1341.7	–
293.15 K, x1 = 0.2602	836.674	1360.5	–
293.15 K, x1 = 0.3286	842.718	1387.1	–
293.15 K, x1 = 0.3985	848.216	1414.5	–
293.15 K, x1 = 0.5036	856.28	1456.5	–
293.15 K, x1 = 0.5965	863.365	1494.7	–
293.15 K, x1 = 0.7081	872.153	1543.9	–
293.15 K, x1 = 0.7931	879.359	1584.7	–
293.15 K, x1 = 0.8504	884.315	1613.6	–
293.15 K, x1 = 0.8979	888.772	1639.1	–
293.15 K, x1 = 0.936	892.567	1660.5	–
298.15 K, x1 = 0.0528	811.698	1262.9	2.609
298.15 K, x1 = 0.1135	818.144	1285	2.591
298.15 K, x1 = 0.1488	821.746	1298.6	2.584
298.15 K, x1 = 0.214	828.164	1324.3	2.53
298.15 K, x1 = 0.2602	832.509	1342.9	2.484
298.15 K, x1 = 0.3283	–	–	2.412
298.15 K, x1 = 0.3286	838.245	1368.8	–
298.15 K, x1 = 0.3985	843.943	1396.3	2.327
298.15 K, x1 = 0.5036	851.943	1437.7	2.184
298.15 K, x1 = 0.5965	858.974	1475.5	2.03
298.15 K, x1 = 0.7081	867.696	1523.9	1.842
298.15 K, x1 = 0.7931	874.839	1564.1	1.697
298.15 K, x1 = 0.8504	879.75	1592.5	1.604
298.15 K, x1 = 0.8979	884.168	1617.5	1.538
298.15 K, x1 = 0.936	887.932	1638.7	1.481
303.15 K, x1 = 0.0528	807.785	1245.9	2.298
303.15 K, x1 = 0.1135	814.153	1267.9	2.3
303.15 K, x1 = 0.1488	817.703	1281.4	2.292
303.15 K, x1 = 0.214	824.038	1306.8	2.245
303.15 K, x1 = 0.2602	828.329	1325.3	2.213
303.15 K, x1 = 0.3283	–	–	2.147
303.15 K, x1 = 0.3286	833.896	1350.9	–
303.15 K, x1 = 0.3985	839.656	1378.1	2.071
303.15 K, x1 = 0.5036	847.599	1419.1	1.942
303.15 K, x1 = 0.5965	854.57	1456.3	1.813
303.15 K, x1 = 0.7081	863.224	1504	1.648
303.15 K, x1 = 0.7931	870.306	1543.5	1.531
303.15 K, x1 = 0.8504	875.173	1571.4	1.448
303.15 K, x1 = 0.8979	879.552	1596.1	1.381
303.15 K, x1 = 0.936	883.288	1616.8	1.334
308.15 K, x1 = 0.0528	803.849	1228.5	2.001
308.15 K, x1 = 0.1135	810.137	1250.7	2.009
308.15 K, x1 = 0.1488	813.64	1264.3	1.995
308.15 K, x1 = 0.214	819.892	1289.5	1.954
308.15 K, x1 = 0.2602	824.133	1307.8	1.923
308.15 K, x1 = 0.3283	–	–	1.866
308.15 K, x1 = 0.3286	829.828	1333.6	–
308.15 K, x1 = 0.3985	835.352	1360	1.798
308.15 K, x1 = 0.5036	843.235	1400.4	1.697
308.15 K, x1 = 0.5965	850.157	1437.1	1.601
308.15 K, x1 = 0.7081	858.739	1484.2	1.471
308.15 K, x1 = 0.7931	865.762	1523	1.377
308.15 K, x1 = 0.8504	870.584	1550.5	1.314
308.15 K, x1 = 0.8979	874.924	1574.8	1.25
308.15 K, x1 = 0.936	878.628	1595.3	1.198
313.15 K, x1 = 0.0528	799.876	1210.7	–
313.15 K, x1 = 0.1135	806.088	1233.6	–
313.15 K, x1 = 0.1488	809.548	1247.2	–
313.15 K, x1 = 0.214	815.723	1272.3	–
313.15 K, x1 = 0.2602	819.91	1290.4	–
313.15 K, x1 = 0.3286	825.879	1315.8	–
313.15 K, x1 = 0.3985	831.025	1341.9	–
313.15 K, x1 = 0.5036	838.849	1381.7	–
313.15 K, x1 = 0.5965	845.718	1418.1	–
313.15 K, x1 = 0.7081	854.232	1464.4	–
313.15 K, x1 = 0.7931	861.194	1502.7	–
313.15 K, x1 = 0.8504	865.971	1529.7	–
313.15 K, x1 = 0.8979	870.277	1553.1	–
313.15 K, x1 = 0.936	873.95	1573.7	–

— the NIST ThermoML archive (doi:10.1021/je1012857)
